The values below come from patent US12029682B2, “Spray ejector mechanisms and devices providing charge isolation and controllable droplet charge, and low dosage volume ophthalmic administration” (EYENOVIA, INC., priority 2012, dated 2024).

For data set [1], the system named is glaucomatous beagles. Put plainly: Intraocular pressure (IOP), TonoVet, in glaucomatous beagles. It counts as in vivo, beagle dog.
The subject of data set [2] is glaucomatous beagles. Put plainly: Ocular irritation observations in glaucomatous beagles. It counts as in vivo, beagle dog. Particulars: 6 μl of 0.03% via spray ejector device, compared to traditional eye drop treatment. On the procedure: Active drug delivery begins on study day eight. For five days, IOP and PD measurements are taken at 0900. Immediately after 0900 measurements (time 0), each animal receives 6 μl of generic latanoprost in its assigned eye with the ejector device, followed by a second dosing 3 minutes later of an additional 6 μl (to avoid overloading the conjunctival sac). The contralateral eye receives a clinical dose (one drop) of the same commercially-available topical drug from FDA approved container (positive control). The ejector device is checked for accuracy before and after every use (Table 1). Standard measurements continue throughout each day (at 0:30, 0:45, 1, 2, 7 hrs). Possible endpoints include, but are not limited to, excessive ocular irritation, ocular damage, or other illness and injury. […]
On study days 5-9, IOP and PD measurements were taken at approximately 0900 h (time 0). Immediately after these measurements, each animal received 6 μl of 0.03% bimatoprost in its assigned eye via the spray ejector device. The contralateral eye received a clinical dose (one drop) of the same commercially available topical drug from a traditional eyedropper (positive control). The spray ejector device was checked for accuracy before and after every use and required a 10% delivered dose accuracy in pretreatment. Standard measurements continued throughout each day at 0, 1, 2, 4, and 7 hours. Possible endpoints included, but were not limited to, excessive ocular irritation, ocular damage, and other illness or injury. No statistical crossover was utilized for this study.
Ophthalmic examinations (slit lamp with fluorescein and indirect ophthalmoscopy) were performed on the eyes of each animal prior to Study Day 1. Ocular findings were scored according to the McDonald-Shadduck Score System. Ocular findings were recorded using a standardized data collection sheet. Macroscopic observations were recorded in accordance with the Draize Scale for Scoring Ocular Lesions. Animals were assigned treatments based on basic randomization prior to study day one.
Following a 7 day rest period, the eye choice was reversed. Measurements of IOP, heart rate and pupil diameter (PD) were made at 0:15, 0:30, 0:45, 1, 2, 4, 7, and 18 hours in the primary and crossover study. A veterinary ophthalmologist evaluated each test subject before and after the study for evidence of ocular side effects.
Ophthalmic examinations (slit lamp with fluorescein and indirect ophthalmoscopy) were performed on the eyes of each animal prior to study day 1. Ocular findings were scored according to the McDonald-Shadduck score system and macroscopic observations were recorded in accordance with the Draize scale for scoring ocular lesions. Ocular findings were recorded using a standardized data collection sheet.

Structures are written as SMILES. “Also recorded” adds a separate entry of the source.

Regarding `CCNC(=O)CCC/C=C\C[C@@H]1[C@@H](/C=C/[C@@H](O)CCc2ccccc2)[C@H](O)C[C@@H]1O` [bimatoprost], the “duration of the dose vs spray ejector device” value in the data set with glaucomatous beagles [1] (0.03%, one drop by eyedropper) is listed as “greater”. Further, the “effectiveness at lowering/controlling IOP vs traditional therapy” value in the data set on glaucomatous beagles [1] (6 μl of 0.03% once daily morning via spray ejector device vs one drop (26-30 μl)) was “as effective at lowering IOP and constricting the pupil as traditional therapy; also recorded: as effective at controlling IOP as is the traditional therapy”. The “IOP values vs baseline” value with glaucomatous beagles [1] (6 μl of 0.03% via spray ejector device) is reported as “lower than baseline”. In addition, the irritation entry in the data set on glaucomatous beagles [2] is given as “Markedly less irritation; also recorded: Lack of ocular irritation”.
